Here are results for 39 compounds from patent US5607691A, “Compositions and methods for enhanced drug delivery” (priority 1995, dated 1997).

Counter-ions that a name gives are not always drawn.

The conditions of series [1]: in vivo; cited from earlier work.
The conditions of series [2]: in vivo; cited from earlier work. The source holds these as a separate data set.
The nature of the next series: in vitro. The series is classed as in vitro ADME, human. To be noted: for half-life: read-out: Serum Half-life (converted). In outline: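 Complex from 6 mM ethanol stock added to freshly defrosted human serum at 37° C. Aliquots quenched in 2% zinc sulfate, centrifuged, and supernatant analysed by reversed-phase C8 HPLC for % remaining by peak area. Half-life from slope of ln % remaining vs time.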

The conditions of series [3]: in animals; cited from earlier work.
The conditions of series [4]: given intravenously or intramuscularly; cited from earlier work.
The conditions of series [5]: man, incomplete and variable, averaging; cited from earlier work.
For series [6] the following is noted: human or mouse skin; cited from earlier work.
Setting [7] is: human, serum, Table 5, human serum, 37° C.

Consider `CCn1cc(C(=O)O)c(=O)c2ccc(C)nc21` [Nalidixic acid], for which, in series [1], the absorption result is “rapidly absorbed from the gastrointestinal tract”.

For `C[C@H]1O[C@@H](O[C@H]2[C@@H](O)C[C@H](O[C@H]3[C@@H](O)C[C@H](O[C@H]4CC[C@@]5(C)[C@H](CC[C@@H]6[C@@H]5CC[C@]5(C)[C@@H](C7=CC(=O)OC7)CC[C@]65O)C4)O[C@@H]3C)O[C@@H]2C)C[C@H](O)[C@@H]1O` [digitoxin, 3β,5β-3-[(O-2,6-dideoxy-β-D-ribo-hexopyranosyl(1→4)-O-2,6-dideoxy-β-D-ribo-hexopyranosyl-(1→4)-2,6-dideoxy-β-D-ribohexopyranosyl)oxy]-14-hydroxycard-20(22)-enolide], in series [1], the absorption entry is recorded as “completely absorbed”.

For `O=c1[nH]cc(F)c(=O)[nH]1` [fluorouracil, 5-fluoro-2,4 (1H,3H)-pyrimidinedione], the “passage across blood-brain barrier and placenta” value in series [2] is “diffuses readily across the blood-brain barrier”.

In general, half-life refers to how long it takes for the measured level to halve. For `CCOC(=O)Cc1c(C)n(C(=O)c2ccc(Cl)cc2)c2ccc(OC)cc12` [indomethacin ethyl ester, reference compound], the half-life in “in vitro” (setting [7]) was greater than 5760 min.

Consider `COc1ccc2c(c1)c(CC(=O)COC(=O)OCC[N+](C)(C)C)c(C)n2C(=O)c1ccc(Cl)cc1` [indomethacin hydroxymethyl ketone choline iodide carbonate], for which the half-life in the series “in vitro” (setting [7]) is 1.08 min.

With `COc1ccc2c(c1)c(CC(=O)CO)c(C)n2C(=O)c1ccc(Cl)cc1` [indomethacin hydroxymethyl ketone], in “in vitro” (setting [7]), the half-life was 900 min.

With `COC(=O)Cc1c(C)n(C(=O)c2ccc(Cl)cc2)c2ccc(OC)cc12` [indomethacin methyl ester, reference compound], the half-life in the series “in vitro” (setting [7]) is 8640 min.

Take `O=C1Nc2ccc(Cl)cc2C(c2ccccc2Cl)=NC1O[C@@H]1O[C@H](C(=O)O)[C@@H](O)[C@H](O)[C@H]1O` (stereo partly drawn) [lorazepam glucuronide]: the “central nervous system activity” value in series [3] is reported as “no demonstrable central nervous system activity”.

`O=C1Nc2ccc(Cl)cc2C(c2ccccc2Cl)=NC1O` (stereo not drawn) [lorazepam, 7-chloro-5-(o-chlorophenyl)-1,3-dihydro-3-hydroxy-2H-1,4-benzodiazepin-2-one]: in series [4], the mean half-life entry is on record as “about 16 hours”.

Regarding `CC(=O)O[C@H](CC(=O)OC1N=C(c2ccccc2Cl)c2cc(Cl)ccc2NC1=O)C[N+](C)(C)C` (stereo partly drawn) [lorazepam-3-(O-acetylcarnitine) ester chloride salt], the half-life in “in vitro” (setting [7]) is 312 min.

With `C[N+](C)(C)CCOC(=O)OC1N=C(c2ccccc2Cl)c2cc(Cl)ccc2NC1=O` (stereo not drawn) [lorazepam-3-choline carbonate, chloride salt], in the series “in vitro” (setting [7]), the half-life was 132 min.

For `COc1ccc2c(c1)c(CCNC(C)=O)cn2C(=O)OCC[N+](C)(C)C` [melatonin-1-choline carbamate, bromide salt], in the series “in vitro” (setting [7]), the half-life was 900 min.

In the case of `O.Sc1ncnc2nc[nH]c12` [mercaptopurine, 1,7-dihydro-6H-purine-6-thione monohydrate], the “absorption of an oral dose” value in series [5] is on record as “approximately 50 % of the administered dose”.

On to `CN(Cc1cnc2nc(N)nc(N)c2n1)c1ccc(C(=O)N[C@@H](CCC(=O)OCOC(=O)CCC[N+](C)(C)C)C(=O)OCOC(=O)CCC[N+](C)(C)C)cc1` [methotrexate-bis-(4-trimethylammoniobutyroyloxymethyl ester), diiodide salt], for which the half-life in the series “in vitro” (setting [7]) was 108 min.

For the compound `CN(Cc1cnc2nc(N)nc(N)c2n1)c1ccc(C(=O)N[C@@H](CCC(=O)OCC[N+](C)(C)C)C(=O)OCC[N+](C)(C)C)cc1` [methotrexate-bis-choline ester, dibromide salt], the half-life in “in vitro” (setting [7]) was 840 min.

As to `CCn1cc(C(=O)OCOC(=O)CCCCC[N+](C)(C)C)c(=O)c2ccc(C)nc21` [nalidixic acid 6-(N,N,N-trimethylamino)-hexanoyloxymethyl ester, iodide salt], in “in vitro” (setting [7]), the half-life was 4.8 min.

Turning to `CCn1cc(C(=O)OCC[N+](C)(C)C)c(=O)c2ccc(C)nc21` [nalidixic acid, choline ester, bromide salt], the half-life in the series “in vitro” (setting [7]) was 66 min.

`CCn1cc(C(=O)OCOC(=O)OCC[N+](C)(C)C)c(=O)c2ccc(C)nc21` [nalidixic acid, cholinecarbonato methyl ester, iodide salt]: the half-life in the series “in vitro” (setting [7]) was 1.27 min.

In the case of `O=C(OCCc1ccc([N+](=O)[O-])cc1)c1cccnc1` [p-nitrophenylethyl alcohol nicotinate ester], the half-life in the series “in vitro” (setting [7]) is 0.433 min.

`C[n+]1cccc(C(=O)OCCc2ccc([N+](=O)[O-])cc2)c1` [p-nitrophenylethyl alcohol trigonelline ester]: in the series “in vitro” (setting [7]), the half-life was 28 min.

For `CC(=O)[C@H]1CC[C@H]2[C@@H]3CC=C4C=C(OC(=O)CCC[N+](C)(C)C)CC[C@]4(C)[C@H]3CC[C@]12C` [progesterone-3-(4-N,N,N-trimethylammoniobutyrate) enol ester, bromide salt], the half-life in “in vitro” (setting [7]) was 180 min.

With `CC(=O)[C@H]1CC[C@H]2[C@@H]3CC=C4C=C(OC(=O)C[N+](C)(C)C)CC[C@]4(C)[C@H]3CC[C@]12C.[Br-]` [progesterone-3-betainoyl enol ester, bromide salt], the “Serum Half-life” value in “in vitro” (human, serum) is 1.6 min.

As to `CC(=O)O[C@H](CC(=O)OC[C@H](NC(=O)OCc1ccccc1)C(=O)OCc1ccccc1)C[N+](C)(C)C` [serine, L-isomer, HO-(O-acetyl-L-carnitine ester) N-CBZ, benzyl ester], the half-life in “in vitro” (setting [7]) was 21 min.

Turning to `C[n+]1cccc(C(=O)OC[C@H](NC(=O)OCc2ccccc2)C(=O)OCc2ccccc2)c1` [serine, L-isomer, HO-trigonellate ester, N-CBZ, benzyl ester], the half-life in the series “in vitro” (setting [7]) was 5 min.

Regarding `C[C@]12CC[C@H]3[C@@H](CCC4=CC(=O)CC[C@@]43C)[C@@H]1CC[C@@H]2OC(=O)OCOC(=O)CCCCC[N+](C)(C)C` [testosterone-17-(6-trimethylammoniohexanoyloxymethyl) carbonate, bromide salt], in “in vitro” (setting [7]), the half-life is 19 min.

Take `CCOC(=O)C[C@H](C[N+](C)(C)C)OC(=O)O[C@H]1CC[C@H]2[C@@H]3CCC4=CC(=O)CC[C@]4(C)[C@H]3CC[C@]12C` [testosterone-17-(L-carnitineethyl ester) carbonate, iodide salt]: in the series “in vitro” (setting [7]), the half-life is 49 min.

Take `CC(=O)O[C@H](CC(=O)O[C@H]1CC[C@H]2[C@@H]3CCC4=CC(=O)CC[C@]4(C)[C@H]3CC[C@]12C)C[N+](C)(C)C` [testosterone-17-(O-acetyl-L-carnitinate), chloride salt]: the half-life in the series “in vitro” (setting [7]) is 5760 min.

For `CCCCCCCCCCCCCCCC(=O)O[C@H](CC(=O)O[C@H]1CC[C@H]2[C@@H]3CCC4=CC(=O)CC[C@]4(C)[C@H]3CC[C@]12C)C[N+](C)(C)C` [testosterone-17-(O-palmityl-L-carnitinate), chloride salt], the half-life in “in vitro” (setting [7]) was 7060 min.

With `C[C@]12CC[C@H]3[C@@H](CCC4=CC(=O)CC[C@@]43C)[C@@H]1CC[C@@H]2OC(=O)OCOC(=O)C[N+](C)(C)C` [testosterone-17-betainoyloxymethyl carbonate, iodide salt], in “in vitro” (setting [7]), the half-life is 0.633 min.

As for `C[C@]12CC[C@H]3[C@@H](CCC4=CC(=O)CC[C@@]43C)[C@@H]1CC[C@@H]2OC(=O)OCOC(=O)COC(=O)C[N+](C)(C)C` [testosterone-17-betainoyloxymethylcarbonyloxymethyl carbonate, iodide salt], the half-life in the series “in vitro” (setting [7]) was 8.5 min.

For the compound `C[C@]12CC[C@H]3[C@@H](CCC4=CC(=O)CC[C@@]43C)[C@@H]1CC[C@@H]2OC(=O)OCC[N+](C)(C)C` [testosterone-17-choline carbonate, bromide salt], in the series “in vitro” (setting [7]), the half-life is 29 min.

With `Cn1c(=O)c2c(ncn2COC(=O)C[N+](C)(C)C)n(C)c1=O` [theophylline-7-(N,N,N,-trimethylglycyloxymethyl), iodide salt], in “in vitro” (setting [7]), the half-life was 0.5 min.

For the compound `CN(C)CC(=O)OCn1cnc2c1c(=O)n(C)c(=O)n2C` [theophylline-7-(N,N-dimethylglycyloxymethyl], in “in vitro” (setting [7]), the half-life was 1680 min.

Regarding `Cn1c(=O)c2c(ncn2COC(=O)CCC[N+](C)(C)C)n(C)c1=O` [theophylline-7-[4-(N,N,N-trimethylamino)-butyroyloxymethyl], bromide salt], in the series “in vitro” (setting [7]), the half-life is 144 min.

Regarding `CC(=O)O[C@H](CC(=O)O[C@H](C)[C@H](NC(=O)OCc1ccccc1)C(=O)OCc1ccccc1)C[N+](C)(C)C` [threonine, L-isomer, HO-(O-acetyl-L-carnitine ester), N-CBZ, benzyl ester], in the series “in vitro” (setting [7]), the half-life was 40 min.

On to `C[C@@H](OC(=O)c1ccc[n+](C)c1)[C@H](NC(=O)OCc1ccccc1)C(=O)OCc1ccccc1` [threonine, L-isomer, HO-trigonellate ester, N-CBZ benzyl ester], for which the half-life in the series “in vitro” (setting [7]) is 40 min.

As for Cytochrome c, in series [6], the “iontophoretic transport across skin” value is recorded as “can be iontophoretically transported readily across human or mouse skin”.

As to “digitoxigenin-3-(O-acetyl-D,L-carnitine) ester, (D isomer), chloride salt”, in the series “in vitro” (Table 5, human serum, 37° C.), the “Serum Half-life” value is on record as ~ 50 min.

For the compound “digoxin-12-{N-[6-(N',N',N'-trimethylamino)hexanoyloxymethyl]glycinoyloxymethyl} carbonate-3"',4"'-cyclic carbonate, bromide salt”, the “Serum Half-life” value in “in vitro” (Table 5, human serum, 37° C.) is reported as 7 min.
